How the values were obtained:
[1] = tested on: human skin fibroblasts (SK319 and FSF44); assay: Inhibitors of early and late aspects of IGDS activity (pre-incubation protocols, collagen gel assay); type: cell-based; parameters: key to Inhibitory activity: early events / Inhibitory activity: late events: yes(+); no(−); conditions: for effect on IGDS-induced cell migration (late events), in words / effect on initial IGDS signalling (early events), in words: Table 3; for inhibition at 10 µg/mL: Homo sapiens, Skin fibroblast
Protocol: (§1) Migration Assays. In the collagen gel assay, pre-formed 2 ml gels were overlaid with 1 ml of serum-free MEM (controls) or serum-free MEM containing the requisite concentration of effector molecule to give the desired final concentration. Trypsinised fibroblasts were suspended in serum-free MEM to give an inoculum containing 2×10^5 cells/ml and 1 ml of this was plated onto replicate control and test gels.
The specific effects of potential inhibitory molecules on such early and late events were examined by using the following experimental protocol: (a) pre-incubating cells with IGDS (SEQ ID NO 2) and inhibitor and then assaying these treated cells in the absence of both IGDS (SEQ ID NO 2) and inhibitor (note: this protocol provides data concerning the effects of inhibitor on the early events mediating IGDS (SEQ ID NO 2) activity), (b) pre-incubating cells with neither IGDS (SEQ ID NO 2) nor inhibitor and assaying them in the presence of both (the effects of inhibitor on both early and late events), (c) pre-incubating cells with IGDS (SEQ ID NO 2) alone and then assaying them in the presence of inhibitor only (the effects of inhibitor on late events), and finally, (d) pre-incubating cells with inhibitor alone and then assaying them in the presence of IGDS (SEQ ID NO 2) to provide control information regarding possibly persistent effects of inhibitor which would confound data interpretation. Data presented in Table IA are concerned with the effects of the synthetic RGDS (SEQ ID NO 6) and RGES (SEQ ID NO 5).

[2] = tested on: human skin fibroblasts (SK319 and FSF44); assay: Native collagen gel migration assay; type: cell-based; conditions: for effect on cell migration into native type I collagen gels: human dermal fibroblasts, 4-day incubation, FIG. 1; for concentration at which significant bioactivity (migration stimulation) is first manifest: collagen gel assay, FIG. 1A
Protocol: Assays were performed as described in Materials and Methods in Example 1. Results are normalised by expressing them as “relative stimulation” of migration, this being calculated by dividing the percentage of cells in the gel matrix for each experimental point by the control value obtained in that particular experiment. Data are presented as the mean ±SD of five experiments. For clarity, the shaded area indicates the spread of standard deviations for data points not plotted with error bars. Upper panel: results obtained with the indicated synthetic peptides. Lower panel: results obtained with native fibronectin (FN), and its cell-binding (Cell-BD) and gelatin-binding (Gel-BD) domains.
(§2) Cells. Experiments were performed with two lines of human skin fibroblasts (SK319 and FSF44, between passage 10–18) shown to be free of mycoplasmal contamination by staining with Hoechst 33256. Identical results were obtained with both lines and these cells are consequently not individually identified in the Figures. Stock cultures were maintained in Eagle's Minimal Essential (MEM), as previously described^7.
as §1

[3] = tested on: human skin fibroblasts (SK319 and FSF44); assay: Collagen gel assay with combinations of peptides (co-incubation); type: cell-based; conditions: FIG. 3B, 3C
Protocol: The collagen gel assay was performed in the presence of various combinations of the indicated peptides and the percentage of cells present within the gel matrix measured after a four-day incubation period. Data are expressed as mean ±SD obtained in three experiments. Panel A: combinations of the gelatin-binding domain (Gel-BD) and IGDS (SEQ ID NO 2); Panel B: combinations of IGDS (SEQ ID NO 2) and RGDS (SEQ ID NO 6); Panel C: combinations of IGDS (SEQ ID NO 2) and the cell-binding domain (Cell-BD).
as §1
The possible mechanistic relationship between IGDS (SEQ ID NO 2) and the gelatin-binding domain in which it is contained was further examined by co-incubating cells with suboptimal concentrations of each.
Possible mechanistic interactions between IGDS (SEQ ID NO 2) and RGDS (SEQ ID NO 6) were studied in similar co-incubation experiments.

[4] = tested on: human skin fibroblasts (SK319 and FSF44); assay: Transmembrane migration assay (membranes coated with native type I collagen or gelatin); type: cell-based; conditions: FIG. 2
Protocol: Assays were performed as described in Materials and Methods in Example 1. Results from five experiments are presented as mean ±SD. Shaded area indicates the spread of standard deviations for data points not plotted with error bars. Panel A: results obtained with IGDS (SEQ ID NO 2) and the gelatin-binding domain (Gel-BD) on membranes coated with native collagen and gelatin. Panel B: results obtained with RGDS (SEQ ID NO 6), native fibronectin (FN), and its cell-binding domain (Cell-BD).
as §2
Polycarbonate membranes used in the transmembrane assay were immersed in an aqueous solution containing 10 μg/ml of either native type I collagen or heat-denatured type I collagen (gelatin) overnight at 37° C. and then air-dried. Assays were performed as previously described^7.

chick yolk sac membrane = assay: Chick yolk sac membrane angiogenesis assay; type: in vivo; conditions: for Positive responses (%) / Positive responses (positive/total): 3000 ng/pellet, assessed after 24 hr; for angiogenic response in the chick yolk sac membrane, in words: in vivo
Text: Dried methylcellulose pellets containing the test samples and control pellets (lacking the test samples) were placed on the yolk sac membrane of 6-day chick embryos, as described in Materials and Methods in Example 1. The elicited reaction was checked after six hours and assessed after 24 hr by observation of living embryos with a stereomicroscope. […] After assessment at 24 hr, selected membranes were fixed in 2.5% EM grade glutaraldehyde in 0.2 M phosphate buffer, pH 7.4. These preparations were then stained with 1% toluidine blue and photographed using a Leica DM LB microscope. […] Bar=250 μm.
Chick yolk sac membrane angiogenesis assay. The assay was performed essentially as described by Gush et al (1990) J. Med. Engineer. Tech. 14, 205–209. Accordingly, four-day-old fertilised eggs were cracked in a tumbler, covered with a Petri dish and incubated at 37° C. Two days later dried methylcellulose pellets containing the test samples and control pellets (lacking the test samples) were placed on the yolk sac membrane. The elicited angiogenic reaction was assessed after 24 hr by observation of living embryos with a stereomicroscope. Selected membranes were fixed in 2.5% EM grade glutaraldehyde in 0.2 M phosphate buffer (pH 7.4), dissected, stained with 1% toluidine blue and mounted on glass slides for photomicroscopy.

[5] = peptide 10.0 μ molar, no pre-incubation, IGDS and peptide in assay (early and late events)
[6] = peptide 10.0 μ molar, pre-incubation with IGDS alone, peptide only in assay (late events)
[7] = peptide 10.0 μ molar, pre-incubation with IGDS and peptide, neither in assay (early events)
[8] = Genistein 10 μg/ml, PD98059 2.0 μM, PKA inhib 5 nM
[9] = Genistein 10 μg/ml, PD98059 2.0 μM, PKA inhib 5 nM, no pre-incubation, IGDS and inhibitor in assay (early and late events)
[10] = Genistein 10 μg/ml, PD98059 2.0 μM, PKA inhib 5 nM, pre-incubation with IGDS alone, inhibitor only in assay (late events)
[11] = Genistein 10 μg/ml, PD98059 2.0 μM, PKA inhib 5 nM, pre-incubation with IGDS and inhibitor, neither in assay (early events)

| Compound | effect on IGDS-induced cell migration (late events), in words [1] | effect on initial IGDS signalling (early events), in words [1] | Inhibitory activity: early events ([1]; peptide 10.0 μ molar) | Inhibitory activity: late events ([1]; peptide 10.0 μ molar) | % inhibition [1, 5] [%] | % inhibition [1, 6] [%] | % inhibition [1, 7] [%] | effect on cell migration into native type I collagen gels [2] | effect on the migration stimulating activity of IGDS (co-incubation) [3] | Positive responses (%) (chick yolk sac membrane) | Positive responses (positive/total) (chick yolk sac membrane) | angiogenic response in the chick yolk sac membrane, in words (chick yolk sac membrane) | Inhibitory activity: early events [1, 8] | Inhibitory activity: late events [1, 8] | concentration at which significant bioactivity (migration stimulation) is first manifest [2] [µM] | also measured |
| --- | --- | --- | --- | --- | --- | --- | --- | --- | --- | --- | --- | --- | --- | --- | --- | --- |
| RGDS: structurally related RGDS tetrapeptide (synthetic peptide) (Peptide related to IGDS) | inhibited | inhibited | early events: + | late events: + | 92.3 ± 2.1 | 96.5 ± 5.7 | 96.2 ± 4.8 | devoid of migration stimulating activity | effectively inhibited | (9) % | 1/11 | inactive |  |  |  | concentrations required for inhibition of IGDS activity [3]: pmolar; effect on cell migration through gelatin-coated membranes ([4]; gelatin (heat-denatured type I collagen)-coated membranes): inactive; effect on cell migration through membranes coated with native collagen ([4]; native type I collagen-coated membranes): inactive |
| RGES: RGES synthetic peptide (Peptide related to IGES) | inactive | inactive | early events: − | late events: − | 1.2 ± 2.1 | 0.3 ± 2.8 | −1.0 ± 3.0 |  | no effect | (10) % | 1/10 | inactive |  |  |  |  |
| O=c1c(-c2ccc(O)cc2)coc2cc(O)cc(O)c12 [Genistein] | did not affect | selectively blocked |  |  |  |  |  |  |  |  |  |  | early events: + | late events: − |  | inhibition at 10 µg/mL [1, 9]: 94.1 ± 6.5%; inhibition at 10 µg/mL [1, 10]: 0.9 ± 2.9%; inhibition at 10 µg/mL [1, 11]: 96.7 ± 4% |
| COc1cccc(-c2cc(=O)c3ccccc3o2)c1N [PD98059] | blocked | blocked |  |  |  |  |  |  |  |  |  |  | early events: + | late events: + |  | % inhibition [1, 9]: 99.8 ± 3.8%; % inhibition [1, 10]: 39.4 ± 5.0%; % inhibition [1, 11]: 90.5 ± 3.1% |
| Ile-Gly-Asp (IGD; listed as Homo sapiens) |  |  |  |  |  |  |  | stimulated cell migration |  |  |  |  |  |  | 10 to 100 |  |
| Ile-Gly-Asp-Gin (IGDQ; listed as Homo sapiens) |  |  |  |  |  |  |  | stimulated cell migration |  |  |  |  |  |  | 0.1 |  |

Source: patent publication US7109160B1, “Peptides containing the motif IGD and their use as cell migration modulators” (University of Dundee, priority 1997, dated 2006)
